The source of these data is patent US10398727B2, “Methods for the treatment and prevention of asbestos-related diseases” (University of Technology, Sydney, priority 2014, dated 2019).

The test system of this data set is crocidolite-induced mesothelioma in MexTAg299 transgenic mice. Put plainly: Effect of CM on asbestos-induced mesothelioma in MexTAg299 mice (Example 2). To be noted: mouse, in vivo. On the procedure: MexTAg299 transgenic mice are suitable for testing asbestos-induced mesothelioma with 100% incidence. MexTAg mice exposed to asbestos develop cancer that faithfully replicates key features of the pathogenesis of human mesothelioma.
Controls were normal saline (0.9%) or CM at 90 mg/kg (3 mice each).

For the substance clinoptilolite [CM], the “Mesothelioma (number of mice)” value is reported as 0.
